Test results as given in patent EP3694851B1, “ENVIRONMENTALLY DEGRADABLE QUINOLONE ANTIBIOTICS HAVING A HEMIAMINAL STRUCTURAL UNIT” (priority 2017, dated 2019).
Values after ≈ are worked out from the molar mass of the structure shown. Values belong to the compound of their own block, whether it stands above or below them.

Experiments:
[1] = system: E. faecalis ATCC 29121, P. aeruginosa ATCC 27853, S. aureus ATCC 29213, E. coli ATCC 25922, S. aureus ATCC 43300, K. pneumoniae ATCC 700603, A. baumanii ATCC …; test: Minimal inhibitory concentrations in various bacterial strains (broth microdilution); type: cell-based
Text: Minimale Hemmkonzentrationen in verschiedenen Bakterienstämmen: Die antibiotische Aktivität wurde mittels Durchführung der Broth-Mikroverdünnungsmethode ermittelt (Cockerill et al., 2012, siehe Literatur). Es wurden die folgenden Bakterienstämme verwendet: Staphylococcus aureus (ATCC 29213), Enterococcus faecalis (ATCC 29212), Escherichia coli (ATCC 25922) und Pseudomonas aeruginosa (ATCC 27853), sowie S. aureus (ATCC 43300), K. pneumoniae (ATCC 700603), A. baumanii (ATCC 19606). Die Bestimmungen der minimalen Hemmkonzentrationen wurden durch zwei unabhängige Laboratorien durchgeführt.
Bakterienzellen wurden bei einer Zelldichte von 2 - 8 × 10^5 cfu/ml in 200 µl Mueller-Hinton-Brothmedium verdünnt. Die Ansätze enthielten eine Verdünnungsreihe der Testsubstanzen. Diese inokulierten 96-well Platten wurden für 18 h bei 36°C inkubiert. Die minimale Hemmkonzentration wurde ermittelt durch visuelle Abschätzung der niedrigsten Konzentration, die die Bakterien vollständig gehemmt hatte.

[2] = system: Vibrio fischeri NRRL-B-11177; test: Luminescence inhibition in V. fischeri (luminescent bacteria test); type: cell-based; details: after cleavage of the linker, compared with Verbindung 1; Figure 5
Text: Die antibiotische Aktivität in V. fischeri wurden in einem Leuchtbakterientest (LBT) mit Vibrio fischeri NRRL-B-11177 (Hach-Lange GmbH, Düsseldorf, Germany) untersucht. Die Durchführung des LBT erfolgte nach dem modifizierten Protokoll von Menz et al. (2013), siehe Literaturliste.

[3] = Abiotic hydrolysis (pH-dependent, phosphate-buffered saline, HPLC); details: for Abspaltung des labilen Linkers: Figures 6a and 6b; for Abbau des Hemiaminal-Restes: within 7 days
Method: Der pH-Wert wurde auf pH 6, pH 7,4 oder pH 9 eingestellt. Die Ansätze wurden bei 37 °C für pH 6 und 7,4 und bei Raumtemperatur für pH 9 unter Schütteln (250 rpm) für 28 Tage inkubiert. An Tag 0, 1, 7, 14, 21 und 28 wurden Proben (700µL) für die HPLC Analyse entnommen. Der Quotient der Ausgangskonzentration co durch die Konzentration am jeweiligen Zeitpunkt (ct) wurde kalkuliert und als natürlicher Logarithmus gegen die Inkubationszeit aufgetragen.
Eine NUCLEODUR® RP-C18 (CC 125/4 100-5µm C18 ec) Säule und mobile Phasen bestehend aus 0.1 % Ameisensäure in hochreinem Wasser (CH2O2: Solution A) and 100 % Acetonitril (CH3CN: Solution B) wurden verwendet. Die Flußrate wurde auf 0.5 mL min^-1 eingestellt. Die Temperatur des Säulenofens wurde auf 25 °C eingestellt und das Injektionsvolumen betrug 10 µL. […] Die Testsubstanzen wurden durch einen UV/Vis Detektor bei 270 nm detektiert. Die Fließgradientenmethode wurde angewendet wie in Tabelle 1 aufgelistet. Tabelle 1 : Fließgradientenbedingungen zur chromatographischen Analyse der Testsubstanzen

[4] = system: Escherichia coli K12 ATCC 23716; test: Growth inhibition in E. coli (96-well plate, 4 h at 37°C, absorption at 600 nm); type: cell-based; details: ATCC23716, 4 h, E. coli (ATCC 23716), activity in the range of medium-strength fluoroquinolones, Figure 4
Method: Escherichia coli K12 ATCC 23716 wurde von DSMZ GmbH (Braunschweig, Germany) erhalten.
Die Testsubstanzen wurden in Wasser verdünnt und auf einer 96-well-Platte zur Bakteriensuspension (in 2x Bakterienmedium (10 g Pepton and 6 g Fleischextrakt in 1 Liter)) gegeben, so dass die Endkonzentration des Mediums 1x war. Die Platte wurde 4h bei 37°C inkubiert. Die Zelldichte wurde photometrisch durch Messung der Absorption bei 600 nm bestimmt. Die Wachstumshemmung in Prozent der unbehandelten Kontrollen gegen die Konzentration der Testsubstanz aufgetragen.

[5] = system: Humane embryonale Nierenzellen (HEK293); test: Cytotoxicity test in HEK293 cells; type: cell-based, human; details: Figure 3
Method: Humane embryonale Nierenzellen (HEK293) wurden in 384-well-Platten mit einer Dichte von 6000 Zellen/well in einem finalen Volumen von 50 µl mit der gewünschten Konzentration der Testsubstanz ausgesät. DMEM mit 10% fötalem Rinderserum (FBS) wurde als Wachstumsmedium verwendet. Die Zellen wurden zusammen mit den Testsubstanzen für 20 h bei 37 °C mit 5% COz inkubiert.

[6] = Stability test at low pH (Marbofloxacin); type: physicochemical

Compound: O=C(O)c1cnc2cc(N3CCNCC3)c(F)cc2c1O [Cip-d-CP, reference compound]
antibiotische Aktivität (MHK) im Vergleich zur Ausgangssubstanz ([1]; fragment after cleavage of the linker compared with Verbindung 1, Figures 2 and 3): deutlich schwächer aktiv als die Ausgangssubstanz | antibiotische Aktivität in V. fischeri (Leuchthemmung) [2]: deutliche Abschwächung der antibiotischen Aktivität nach Abspaltung des Linkers | Instabilität unter den gewählten pH-Bedingungen ([3]; chosen pH conditions (pH 6, pH 7,4 at 37°C; pH 9 at room temperature; 28 days)): Weder das verbleibende Fragment noch die Ausgangssubstanz Ciprofloxacin waren unter den gewählten pH-Bedingungen instabil

Compound: O=C(O)c1cn(C2CCCO2)c2cc(N3CCNCC3)c(F)cc2c1=O (stereo not drawn) [Verbindung 1]
MIC [4]: 0.1 to 1 µg/mL (≈ 0.277 to 2.77 µM) | Aktivität in anderen pathogenen Bakterien ([1]; other pathogenic bacteria, compared with quinolone generations): über den Chinolonen der ersten Generation, aber unterhalb etablierter Fluorchinolone der zweiten Generation | antibakterielle Aktivität ([1]; strains of E. coli, K. pneumoniae, P. aeruginosa and V. fischeri, compared with medium-strength fluoroquinolones): zu mittelstarken Fluorchinolonen eine vergleichbare antibakterielle Aktivität | Abspaltung des labilen Linkers ([3]; at low pH): schnell | Abbau des Hemiaminal-Restes ([3]; low pH of four (e.g. in urine)): zum größten Teil abgebaut | Abbau des Hemiaminal-Restes ([3]; physiological conditions (pH= 7,4)): nur langsam abgebaut | Abspaltung des labilen Linkers ([3]; under physiological conditions): langsam | Zytotoxizität in humanen Zellen (HEK 293) [5]: keine Hinweise auf einen Zytotoxizität

Instabilität bei niedrigem pH [6]: kaum Instabilität beobachtet
Compound: CN1CCN(c2c(F)cc3c(=O)c(C(=O)O)cn4c3c2OCN4C)CC1 [Marbofloxacin]
